Earlier results, collected in patent publication US20110052581A1 (Poniard Pharmaceuticals Inc., priority 2008, published 2011).

Tested on: patients with advanced colorectal cancer
Details: single agent therapy

Structure (SMILES)	median survival [months]	progression-free survival (median) [months]	response rate [%]
CCc1c2c(nc3ccc(OC(=O)N4CCC(N5CCCCC5)CC4)cc13)-c1cc3c(c(=O)n1C2)COC(=O)[C@]3(O)CC [irinotecan]	~12	4.3	18
O=C1[O][Pt]2([NH][C@@H]3CCCC[C@H]3[NH]2)[O]C1=O [oxaliplatin]		4.0	12
